Reference: patent publication US7482024B2, “Compositions comprising an active agent” (Nektar Therapeutics, priority 1999, dated 2009)
Where “and” joins values, the source holds several entries; their conditions need not be identical. Equal entries are not always repeated. Peptide text beside a SMILES is read from it.

Test: Surface tension measurement, Kruss Processor Tensiometer-K12, Wilhelmy-method (plate method)
Assay type: physicochemical
Conditions: for Surface tension, 25° C. Extrapolated Values at 2 mg/ml / Surface tension, 45° C. Extrapolated Values at 2 mg/ml: extrapolated to 2 mg/ml
Experimental: A “surface active” material is one having surface activity (measured, e.g., by surface tensiometry), as characterized by its ability to reduce the surface tension of the liquid in which it is dissolved. […] A peptide that is more surface active than another peptide is one which decreases the surface tension of water to a greater extent, when present in the liquid at the same concentration and measured under the same set of experimental conditions. The surface tension of several representative dipeptides, tripeptides, and proteins was measured at 25° C. and 45° C. to provide an indication of their relative surface activities. Surface tension measurements were carried out using a Kruss Processor Tensiometer-K12 with the Wilhelmy-method (Plate method). Solutions were prepared by dissolving either 0.05%, 0.2%, or 0.6% peptide/protein (by weight) along with an appropriate amount of raffinose by weight to provide final solutions having a 1.0% by weight solids content. Surface tension measurements at 25° C. and 45° C. were then obtained for the test solutions at three different time points (49 seconds, 100 seconds and 194 seconds).

[1] = 0.2% (wt/vol) plus raffinose to 1% total solids, 25° C., 49 s
[2] = 0.2% (wt/vol) plus raffinose to 1% total solids, 25° C., 100 s
[3] = 0.2% (wt/vol) plus raffinose to 1% total solids, 25° C., 194 s

Val-Ile [reference compound]
Surface tension, Actual MEAN (1.11 mg/ml, 25° C.): 71.6 mN/m
Surface tension, Actual MEAN (1.11 mg/ml, 45° C.): 66.3 mN/m
Surface tension, Actual MEAN (3.33 mg/ml, 25° C.): 70.1 mN/m
Surface tension, Actual MEAN (3.33 mg/ml, 45° C.): 65.3 mN/m
Surface tension, Actual MEAN (10.00 mg/ml, 25° C.): 66.1 mN/m
Surface tension, Actual MEAN (10.00 mg/ml, 45° C.): 61.9 mN/m
Surface tension, 25° C. Extrapolated Values at 2 mg/ml (25° C.): 70.3 mN/m
Surface tension, 45° C. Extrapolated Values at 2 mg/ml (45° C.): 65.8 mN/m

leu-tyr-leu
Surface activity (ability to lower the surface tension of water), in words: the most surface active of the trimers
Surface tension, Actual MEAN (0.32 mg/ml, 25° C.): 58.4 mN/m
Surface tension, Actual MEAN (0.32 mg/ml, 45° C.): 55.4 mN/m
Surface tension, Actual MEAN (0.97 mg/ml, 25° C.): 51.6 mN/m
Surface tension, Actual MEAN (0.97 mg/ml, 45° C.): 49.1 mN/m
Surface tension, Actual MEAN (2.90 mg/ml, 25° C.): 44.7 mN/m
Surface tension, Actual MEAN (2.90 mg/ml, 45° C.): 40.8 mN/m
Surface tension, 25° C. Extrapolated Values at 2 mg/ml (25° C.): 47.9 mN/m
Surface tension, 45° C. Extrapolated Values at 2 mg/ml (45° C.): 44.7 mN/m

CC(C)CC(N)C(=O)NC(CC(C)C)C(=O)NC(CC(C)C)C(=O)O (stereo not drawn) [tri-leucine, trileucine] (H-Leu-Leu-Leu-OH; configuration not given here)
Surface activity (ability to lower the surface tension of water), in words: highly surface active
Surface tension, Actual MEAN (0.68 mg/ml, 25° C.): 56.9 mN/m
Surface tension, Actual MEAN (0.68 mg/ml, 45° C.): 52.8 mN/m
Surface tension, Actual MEAN (2.03 mg/ml, 25° C.): 49.7 mN/m
Surface tension, Actual MEAN (2.03 mg/ml, 45° C.): 46.3 mN/m
Surface tension, Actual MEAN (6.10 mg/ml, 25° C.): 42.4 mN/m
Surface tension, Actual MEAN (6.10 mg/ml, 45° C.): 38.9 mN/m
Surface tension (ST) (0.05%, pH4, raffinose to 1% solids, 25° C., 49 s, listed as leu3): 59.9 mN/m and 60.4 mN/m
Surface tension (ST) (0.05%, pH4, raffinose to 1% solids, 25° C., 100 s, listed as leu3): 59.8 mN/m and 60.3 mN/m
Surface tension (ST) (0.05%, pH4, raffinose to 1% solids, 25° C., 194 s, listed as leu3): 59.7 mN/m and 60.2 mN/m
Surface tension (ST) (0.05%, pH4, raffinose to 1% solids, 45° C., 49 s, listed as leu3): 57.1 mN/m and 58.1 mN/m and 58 mN/m
Surface tension (ST) (0.05%, pH4, raffinose to 1% solids, 45° C., 100 s, listed as leu3): 57 mN/m and 57.9 mN/m and 57.8 mN/m
Surface tension (ST) (0.05%, pH4, raffinose to 1% solids, 45° C., 194 s, listed as leu3): 57 mN/m and 57.8 mN/m
Surface tension (ST) (0.05%, pH7, raffinose to 1% solids, 25° C., 49 s, listed as leu3): 60.1 mN/m and 60 mN/m and 60.2 mN/m
Surface tension (ST) (0.05%, pH7, raffinose to 1% solids, 25° C., 100 s, listed as leu3): 59.8 mN/m and 60 mN/m
Surface tension (ST) (0.05%, pH7, raffinose to 1% solids, 25° C., 194 s, listed as leu3): 59.7 mN/m and 59.8 mN/m
Surface tension (ST) (0.05%, pH7, raffinose to 1% solids, 45° C., 49 s, listed as leu3): 58.5 mN/m and 58.2 mN/m
Surface tension (ST) (0.05%, pH7, raffinose to 1% solids, 45° C., 100 s, listed as leu3): 58.4 mN/m and 58.2 mN/m and 58.1 mN/m
Surface tension (ST) (0.05%, pH7, raffinose to 1% solids, 45° C., 194 s, listed as leu3): 58.4 mN/m and 58.1 mN/m
Surface tension (ST) [1]: 51 mN/m
Surface tension (ST) [2]: 50.9 mN/m and 50.8 mN/m
Surface tension (ST) [3]: 50.9 mN/m and 50.7 mN/m
Surface tension (ST) (0.2%, pH4, raffinose to 1% solids, 25° C., 49 s): 51.4 mN/m
Surface tension (ST) (0.2%, pH4, raffinose to 1% solids, 25° C., 100 s, listed as leu3): 51.2 mN/m and 51.3 mN/m
Surface tension (ST) (0.2%, pH4, raffinose to 1% solids, 25° C., 194 s, listed as leu3): 51.1 mN/m and 51.2 mN/m
Surface tension (ST) (0.2%, pH4, raffinose to 1% solids, 45° C., 49 s, listed as leu3): 47.9 mN/m and 47.2 mN/m
Surface tension (ST) (0.2%, pH4, raffinose to 1% solids, 45° C., 100 s, listed as leu3): 47.5 mN/m and 47.2 mN/m and 47.3 mN/m
Surface tension (ST) (0.2%, pH4, raffinose to 1% solids, 45° C., 194 s, listed as leu3): 47.4 mN/m and 47.3 mN/m and 47.1 mN/m
Surface tension (ST) (0.2%, pH7, raffinose to 1% solids, 25° C., 49 s, listed as leu3): 51 mN/m and 50.9 mN/m and 50.7 mN/m
Surface tension (ST) (0.2%, pH7, raffinose to 1% solids, 25° C., 100 s, listed as leu3): 50.8 mN/m and 50.7 mN/m and 50.5 mN/m
Surface tension (ST) (0.2%, pH7, raffinose to 1% solids, 25° C., 194 s, listed as leu3): 50.7 mN/m and 50.6 mN/m and 50.4 mN/m
Surface tension (ST) (0.2%, pH7, raffinose to 1% solids, 45° C., 49 s, listed as leu3): 58.5 mN/m and 58.2 mN/m
Surface tension (ST) (0.2%, pH7, raffinose to 1% solids, 45° C., 100 s, listed as leu3): 58.4 mN/m and 58.2 mN/m and 58.1 mN/m
Surface tension (ST) (0.2%, pH7, raffinose to 1% solids, 45° C., 194 s, listed as leu3): 58.4 mN/m and 58.1 mN/m
Surface tension (ST) (0.6%, pH4, raffinose to 1% solids, 25° C., 49 s, listed as leu3): 44.2 mN/m and 44.3 mN/m
Surface tension (ST) (0.6%, pH4, raffinose to 1% solids, 25° C., 100 s, listed as leu3): 44.1 mN/m and 44.2 mN/m
Surface tension (ST) (0.6%, pH4, raffinose to 1% solids, 25° C., 194 s, listed as leu3): 44 mN/m and 44.2 mN/m and 44.1 mN/m
Surface tension (ST) (0.6%, pH4, raffinose to 1% solids, 45° C., 49 s, listed as leu3): 40.9 mN/m and 41.1 mN/m
Surface tension (ST) (0.6%, pH4, raffinose to 1% solids, 45° C., 100 s, listed as leu3): 40.9 mN/m and 41 mN/m
Surface tension (ST) (0.6%, pH4, raffinose to 1% solids, 45° C., 194 s, listed as leu3): 40.8 mN/m and 40.9 mN/m
Surface tension (ST) (0.6%, pH7, raffinose to 1% solids, 25° C., 49 s, listed as leu3): 43.7 mN/m and 43.8 mN/m
Surface tension (ST) (0.6%, pH7, raffinose to 1% solids, 25° C., 100 s): 43.7 mN/m
Surface tension (ST) (0.6%, pH7, raffinose to 1% solids, 25° C., 194 s, listed as leu3): 43.6 mN/m and 43.7 mN/m
Surface tension of water lowered to (concentration of 0.68 mg/ml): about 57 mN/m
Surface tension of water lowered to (concentration of 1.20 mg/ml, water about 72 mN/m): 42 mN/m
Surface tension, 25° C. Extrapolated Values at 2 mg/ml (25° C.): 49.7 mN/m
Surface tension, 45° C. Extrapolated Values at 2 mg/ml (45° C.): 46.3 mN/m

salmon calcitonin [sal. Calcitonin, reference compound]
Surface activity (ability to lower the surface tension of water), in words: highly surface active
Surface tension (ST) [1]: 48.7 mN/m
Surface tension (ST) (0.2% (wt/vol) plus raffinose to 1% total solids, 25° C., 49 s, listed as sal. calcitonin): 48.4 mN/m
Surface tension (ST) [2]: 48.6 mN/m
Surface tension (ST) (0.2% (wt/vol) plus raffinose to 1% total solids, 25° C., 100 s, listed as sal. calcitonin): 48.4 mN/m
Surface tension (ST) [3]: 48.5 mN/m
Surface tension (ST) (0.2% (wt/vol) plus raffinose to 1% total solids, 25° C., 194 s, listed as sal. calcitonin): 48.4 mN/m

leu-leu-ala
Surface tension, Actual MEAN (0.76 mg/ml, 25° C.): 60.7 mN/m
Surface tension, Actual MEAN (0.76 mg/ml, 45° C.): 58.3 mN/m
Surface tension, Actual MEAN (2.27 mg/ml, 25° C.): 43.5 mN/m
Surface tension, Actual MEAN (2.27 mg/ml, 45° C.): 48.2 mN/m
Surface tension, Actual MEAN (6.80 mg/ml, 25° C.): 39.9 mN/m
Surface tension, Actual MEAN (6.80 mg/ml, 45° C.): 48.4 mN/m
Surface tension, 25° C. Extrapolated Values at 2 mg/ml (25° C.): 46.6 mN/m
Surface tension, 45° C. Extrapolated Values at 2 mg/ml (45° C.): 49.8 mN/m

tri-valine [reference compound]
Surface activity (ability to lower the surface tension of water), in words: not particularly effective at lowering the surface tension of water
Surface tension (ST) (Table 2: 0.20% (wt/vol) plus 0.80% raffinose, 25° C., 49 s): 68.8 mN/m and 68.7 mN/m
Surface tension (ST) (Table 2: 0.20% (wt/vol) plus 0.80% raffinose, 25° C., 100 s): 68.8 mN/m and 68.7 mN/m
Surface tension (ST) (Table 2: 0.20% (wt/vol) plus 0.80% raffinose, 25° C., 194 s): 68.8 mN/m and 68.7 mN/m

leu-phe-leu
Surface tension, Actual MEAN (0.68 mg/ml, 25° C.): 54.7 mN/m
Surface tension, Actual MEAN (0.68 mg/ml, 45° C.): 53.6 mN/m
Surface tension, Actual MEAN (2.03 mg/ml, 25° C.): 48.3 mN/m
Surface tension, Actual MEAN (2.03 mg/ml, 45° C.): 46.2 mN/m
Surface tension, Actual MEAN (6.10 mg/ml, 25° C.): 41.5 mN/m
Surface tension, Actual MEAN (6.10 mg/ml, 45° C.): 39.3 mN/m
Surface tension, 25° C. Extrapolated Values at 2 mg/ml (25° C.): 48.3 mN/m
Surface tension, 45° C. Extrapolated Values at 2 mg/ml (45° C.): 46.2 mN/m

Val-Leu [reference compound]
Surface tension, Actual MEAN (0.87 mg/ml, 25° C.): 70 mN/m
Surface tension, Actual MEAN (0.87 mg/ml, 45° C.): 65.5 mN/m
Surface tension, Actual MEAN (2.60 mg/ml, 25° C.): 69.5 mN/m
Surface tension, Actual MEAN (2.60 mg/ml, 45° C.): 65.0 mN/m
Surface tension, Actual MEAN (7.80 mg/ml, 25° C.): 68 mN/m
Surface tension, Actual MEAN (7.80 mg/ml, 45° C.): 63.5 mN/m
Surface tension, 25° C. Extrapolated Values at 2 mg/ml (25° C.): 69.8 mN/m
Surface tension, 45° C. Extrapolated Values at 2 mg/ml (45° C.): 65.3 mN/m

Leu-Val [reference compound]
Surface tension, Actual MEAN (0.98 mg/ml, 25° C.): 69.2 mN/m
Surface tension, Actual MEAN (0.98 mg/ml, 45° C.): 64.2 mN/m
Surface tension, Actual MEAN (2.93 mg/ml, 25° C.): 65 mN/m
Surface tension, Actual MEAN (2.93 mg/ml, 45° C.): 60.4 mN/m
Surface tension, Actual MEAN (8.80 mg/ml, 25° C.): 59.1 mN/m
Surface tension, Actual MEAN (8.80 mg/ml, 45° C.): 55.7 mN/m
Surface tension, 25° C. Extrapolated Values at 2 mg/ml (25° C.): 67.2 mN/m
Surface tension, 45° C. Extrapolated Values at 2 mg/ml (45° C.): 62.3 mN/m
